Tests used:
Assay in all cases: relative viability (nuclei count vs DMSO), 5 days (fraction); higher = more cells survive
[1] = system: SK-LU-1
Method in brief: (§1)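 One day after seeding in 1536-well plates, lung cancer cell lines were dosed by pin tool. Dosing was either single-drug or a fixed anchor-drug dose plus five library-drug doses (not always all listed) in √10 steps. After 5 days, nuclei were stained in one fix-and-stain step and counted on 4× images, and relative viability is the nuclei count of treated wells over that of vehicle wells, given as the median of duplicate plates.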

[2] = system: NCI-H1993
Method in brief: as §1

[3] = system: HCC-78
Method in brief: as §1

[4] = system: NCI-H838
Method in brief: as §1

[5] = system: HCC-15
Method in brief: as §1

[6] = system: NCI-H2405
Method in brief: as §1

[7] = system: HCC-366
Method in brief: as §1

[8] = system: NCI-H2023
Method in brief: as §1

[9] = system: NCI-H1395
Method in brief: as §1

[10] = system: COR-L23
Method in brief: as §1

[11] = system: LC-2-ad
Method in brief: as §1

[12] = system: NCI-H1944
Method in brief: as §1

[13] = system: HARA
Method in brief: as §1

[14] = system: NCI-H23
Method in brief: as §1

[15] = system: HOP-62
Method in brief: as §1

[16] = system: NCI-H358
Method in brief: as §1

[17] = system: EMC-BAC-2
Method in brief: as §1

[18] = system: NCI-H1793
Method in brief: as §1

[19] = system: NCI-H2228
Method in brief: as §1

[20] = system: NCI-H2126
Method in brief: as §1

[21] = system: ChaGo-K-1
Method in brief: as §1

For `Nc1ccn([C@@H]2O[C@H](CO)[C@@H](O)[C@@H]2O)c(=O)n1` [Cytarabine] + CC(=O)Nc1cccc(-n2c(=O)n(C3CC3)c(=O)c3c(Nc4ccc(I)cc4F)n(C)c(=O)c(C)c32)c1 [Trametinib] (partner 0.02 µM), the relative viability ([1]; first compound 0.005 µM) was 0.416, the relative viability ([1]; first compound 0.01581 µM) was 0.454 and the relative viability ([1]; first compound 0.05 µM) was 0.423. It also gave a relative viability ([1]; first compound 0.1581 µM) of 0.356, a relative viability ([1]; first compound 0.5 µM) of 0.303 and a relative viability ([2]; first compound 0.005 µM) of 0.425. The relative viability ([2]; first compound 0.01581 µM) was 0.518, the relative viability ([2]; first compound 0.05 µM) was 0.498 and the relative viability ([2]; first compound 0.1581 µM) was 0.437. The relative viability ([2]; first compound 0.5 µM) was 0.432, the relative viability ([3]; first compound 0.005 µM) was 1.06 and the relative viability ([3]; first compound 0.01581 µM) was 0.688. For the same compound, the relative viability ([3]; first compound 0.05 µM) was 0.575, the relative viability ([3]; first compound 0.1581 µM) was 0.478 and the relative viability ([3]; first compound 0.5 µM) was 0.37. The relative viability ([4]; first compound 0.005 µM) was 0.724, the relative viability ([4]; first compound 0.01581 µM) was 0.535 and the relative viability ([4]; first compound 0.05 µM) was 0.543. It also gave a relative viability ([4]; first compound 0.1581 µM) of 0.274, a relative viability ([4]; first compound 0.5 µM) of 0.246 and a relative viability ([5]; first compound 0.005 µM) of 0.396. It also gave a relative viability ([5]; first compound 0.01581 µM) of 0.281, a relative viability ([5]; first compound 0.05 µM) of 0.381 and a relative viability ([5]; first compound 0.1581 µM) of 0.362. It also gave a relative viability ([5]; first compound 0.5 µM) of 0.357, a relative viability ([6]; first compound 0.005 µM) of 0.648 and a relative viability ([6]; first compound 0.01581 µM) of 0.53. It also gave a relative viability ([6]; first compound 0.05 µM) of 0.464, a relative viability ([6]; first compound 0.1581 µM) of 0.401 and a relative viability ([6]; first compound 0.5 µM) of 0.317. For the same compound, the relative viability ([7]; first compound 0.005 µM) was 0.276, the relative viability ([7]; first compound 0.01581 µM) was 0.33 and the relative viability ([7]; first compound 0.05 µM) was 0.178. The relative viability ([7]; first compound 0.1581 µM) was 0.0948, the relative viability ([7]; first compound 0.5 µM) was 0.086 and the relative viability ([8]; first compound 0.005 µM) was 0.463. The relative viability ([8]; first compound 0.01581 µM) was 0.253, the relative viability ([8]; first compound 0.05 µM) was 0.169 and the relative viability ([8]; first compound 0.1581 µM) was 0.104. It also gave a relative viability ([8]; first compound 0.5 µM) of 0.0963, a relative viability ([9]; first compound 0.005 µM) of 1.06 and a relative viability ([9]; first compound 0.01581 µM) of 1.02. The relative viability ([9]; first compound 0.05 µM) was 0.591, the relative viability ([9]; first compound 0.1581 µM) was 0.524 and the relative viability ([9]; first compound 0.5 µM) was 0.436. It also gave a relative viability ([10]; first compound 0.005 µM) of 0.71, a relative viability ([10]; first compound 0.01581 µM) of 0.529 and a relative viability ([10]; first compound 0.05 µM) of 0.546. It also gave a relative viability ([10]; first compound 0.1581 µM) of 0.304, a relative viability ([10]; first compound 0.5 µM) of 0.203 and a relative viability ([11]; first compound 0.005 µM) of 0.896. It also gave a relative viability ([11]; first compound 0.01581 µM) of 0.908, a relative viability ([11]; first compound 0.05 µM) of 0.893 and a relative viability ([11]; first compound 0.1581 µM) of 0.708. The relative viability ([11]; first compound 0.5 µM) was 0.47, the relative viability ([12]; first compound 0.005 µM) was 0.36 and the relative viability ([12]; first compound 0.01581 µM) was 0.287. The relative viability ([12]; first compound 0.05 µM) was 0.3, the relative viability ([12]; first compound 0.1581 µM) was 0.168 and the relative viability ([12]; first compound 0.5 µM) was 0.169. It also gave a relative viability ([13]; first compound 0.005 µM) of 1.03, a relative viability ([13]; first compound 0.01581 µM) of 0.354 and a relative viability ([13]; first compound 0.05 µM) of 0.335. The relative viability ([13]; first compound 0.1581 µM) was 0.204, the relative viability ([13]; first compound 0.5 µM) was 0.231 and the relative viability ([14]; first compound 0.005 µM) was 0.441. The relative viability ([14]; first compound 0.01581 µM) was 0.355, the relative viability ([14]; first compound 0.05 µM) was 0.223 and the relative viability ([14]; first compound 0.1581 µM) was 0.165. It also gave a relative viability ([14]; first compound 0.5 µM) of 0.14, a relative viability ([15]; first compound 0.005 µM) of 0.352 and a relative viability ([15]; first compound 0.01581 µM) of 0.327. The relative viability ([15]; first compound 0.05 µM) was 0.261, the relative viability ([15]; first compound 0.1581 µM) was 0.23 and the relative viability ([15]; first compound 0.5 µM) was 0.144. For the same compound, the relative viability ([16]; first compound 0.005 µM) was 0.126, the relative viability ([16]; first compound 0.01581 µM) was 0.108 and the relative viability ([16]; first compound 0.05 µM) was 0.103. The relative viability ([16]; first compound 0.1581 µM) was 0.076, the relative viability ([16]; first compound 0.5 µM) was 0.0812 and the relative viability ([17]; first compound 0.005 µM) was 0.972. It also gave a relative viability ([17]; first compound 0.01581 µM) of 0.902, a relative viability ([17]; first compound 0.05 µM) of 0.842 and a relative viability ([17]; first compound 0.1581 µM) of 0.497. It also gave a relative viability ([17]; first compound 0.5 µM) of 0.427, a relative viability ([18]; first compound 0.005 µM) of 0.489 and a relative viability ([18]; first compound 0.01581 µM) of 0.405. For the same compound, the relative viability ([18]; first compound 0.05 µM) was 0.398, the relative viability ([18]; first compound 0.1581 µM) was 0.266 and the relative viability ([18]; first compound 0.5 µM) was 0.258. It also gave a relative viability ([19]; first compound 0.005 µM) of 0.288, a relative viability ([19]; first compound 0.01581 µM) of 0.171 and a relative viability ([19]; first compound 0.05 µM) of 0.158. The relative viability ([19]; first compound 0.1581 µM) was 0.127, the relative viability ([19]; first compound 0.5 µM) was 0.116 and the relative viability ([20]; first compound 0.005 µM) was 0.575. It also gave a relative viability ([20]; first compound 0.01581 µM) of 0.505, a relative viability ([20]; first compound 0.05 µM) of 0.448 and a relative viability ([20]; first compound 0.1581 µM) of 0.349. It also gave a relative viability ([20]; first compound 0.5 µM) of 0.357, a relative viability ([21]; first compound 0.005 µM) of 0.688 and a relative viability ([21]; first compound 0.01581 µM) of 0.625. The relative viability ([21]; first compound 0.05 µM) was 0.504, the relative viability ([21]; first compound 0.1581 µM) was 0.308 and the relative viability ([21]; first compound 0.5 µM) was 0.247.

Source: the supplement of paper PMC10307832
